Data on five compounds can be found in patent US10973782B2, “Pharmaceutical composition for improving or preventing progression of chronic kidney disease” (Frimline Private Limited, priority 2017, dated 2021).

The experiment deals with 5/6 Nephrectomy induced chronic kidney disease (CKD). The experiment is described as follows: 5/6 Nephrectomy induced chronic kidney disease in rat. The following applies: 5/6 nephrectomy rats, mean; for Serum Analysis BUN / Serum Analysis Creatinine / Serum Analysis IL-6 / Urine Analysis Glomerular Filtration Rate: daily p.o. treatment for 10 weeks, end of 10th week; for % Decreased Creatinine / % Decreased in BUN / % Decreased in IL-6: serum; for % Decreased Creatinine / % Decreased in BUN / % Decreased in IL-6 / % Increased GFR: daily p.o. 10 weeks; for % Increased GFR: urine analysis. Type of experiment: in vivo, rat (male Wistar). Here is the method:
Screening effect against 5/6 Nephrectomy induced chronic kidney disease (CKD) of synergistic combination or composition/formulation comprising PEA and other natural ingredients in rat. The following trials were carried out:
54 male Wistar rats (Rat Rattus) (6 per group) were maintained in animal house in a light/dark atmosphere based on a 12 hour cycle having temperature and relative humidity in the range of 25±2° C. and 30-70% respectively. To maintain the appropriate conditions, temperature and relative humidity were recorded three times daily. During complete experiment, animals were supplied with the standard certified rat pellet feed (manufactured by Keval sales corporation, Vadodara) and drinking water treated by the reverse osmosis ad libitum.
In order to evaluate the activity against chronic kidney disease, fifty four (54) male rats were screened and divided in to nine groups. For a comparative analysis, groups were divided as sham control (Group 1), disease control (Group 2), treatment groups with individual components (Group 3, Group 4, Group 5 and Group 6 as PEA, Cholecalciferol, Quercetin and Resveratrol respectively), test composition formulation of the present invention (Group 7 and Group 8 as PEA combinations) and reference standard drug (Group 9).
The animals under consideration were examined for a study period of 10 weeks and two-stage surgical procedure for kidney ligation and removal were performed.
Stage one: A ventral midline incision into the abdomen was made to expose the animal's left kidney, and the organ was freed from the surrounding tissue. A piece of suture was placed and ligated around each pole of the kidney at its one-third position. The one-third kidney on each pole was excised beyond the ligatures and the abdominal incision was closed.
Stage two: This procedure was performed 5-7 days after stage one. The animals were placed in ventral recumbancy and an incision was made parallel to the midline. The abdominal cavity was entered and the right kidney was made free from the surrounding tissue. The kidney was gently pulled out from the incision, and the adrenal gland was freed and replaced into the abdominal cavity. The renal blood vessels and the ureter were ligated or cauterized. The kidney was then removed by transecting the vessels and ureter just distal to the ligature or cauterized section. The skin incision was closed with wound clips.
Treatment. All treatment groups were treated on daily basis for 10 weeks after stage two of surgery. After completion of the study at the end of 10th week, each group was analyzed in terms of the evaluating parameters such as blood collection, biochemistry analysis, urine analysis and histopathology of kidney.

Molecules are shown by their SMILES.

As to `C=C1CC[C@H](O)C/C1=C/C=C1\CCC[C@]2(C)[C@@H]([C@H](C)CCCC(C)C)CC[C@@H]12` [Cholecalciferol], the “Serum Analysis BUN” value was determined as 75.63 mg/dL, the “Serum Analysis Creatinine” value amounted to 1.40 mg/dL, the “Serum Analysis IL-6” value came to 178.45 pg/mL and the “Urine Analysis Glomerular Filtration Rate” value was found to be 5.65 mL/min/kg. The “% Decreased Creatinine” value is reported as 7.02%, the “% Decreased in BUN” value turned out to be 8.05%, the “% Decreased in IL-6” value is 1.22% and the “% Increased GFR” value came to 2.73%.
In the case of `CCCCc1nc(Cl)c(CO)n1Cc1ccc(-c2ccccc2-c2nn[nH]n2)cc1` [Losartan], the “Serum Analysis BUN” value came to 52.81 mg/dL, the “Serum Analysis Creatinine” value is 1.22 mg/dL, the “Serum Analysis IL-6” value worked out at 141.67 pg/mL and the “Urine Analysis Glomerular Filtration Rate” value stood at 6.80 mL/min/kg. For the same compound, the “% Decreased Creatinine” value was found to be 18.98%, the “% Decreased in BUN” value was 35.80%, the “% Decreased in IL-6” value stood at 21.58% and the “% Increased GFR” value came to 23.64%.
Turning to `CCCCCCCCCCCCCCCC(=O)NCCO` [PEA, Palmitoylethanolamide], the “Serum Analysis BUN” value turned out to be 60.98 mg/dL, the “Serum Analysis Creatinine” value turned out to be 1.12 mg/dL, the “Serum Analysis IL-6” value amounted to 162.18 pg/mL and the “Urine Analysis Glomerular Filtration Rate” value was 6.50 mL/min/kg. In addition, the “% Decreased Creatinine” value is 25.63%, the “% Decreased in BUN” value amounted to 25.87%, the “% Decreased in IL-6” value worked out at 10.22% and the “% Increased GFR” value stood at 18.18%.
Turning to `O=c1c(O)c(-c2ccc(O)c(O)c2)oc2cc(O)cc(O)c12` [Quercetin], the “Serum Analysis BUN” value came out at 76.62 mg/dL, the “Serum Analysis Creatinine” value was found to be 1.44 mg/dL, the “Serum Analysis IL-6” value came out at 175.15 pg/mL and the “Urine Analysis Glomerular Filtration Rate” value worked out at 5.64 mL/min/kg. The “% Decreased Creatinine” value is recorded as 4.02%, the “% Decreased in BUN” value was 6.85%, the “% Decreased in IL-6” value is listed as 3.04% and the “% Increased GFR” value was 2.55%.
On to `Oc1ccc(C=Cc2cc(O)cc(O)c2)cc1` [Resveratrol], for which the “Serum Analysis BUN” value turned out to be 74.51 mg/dL, the “Serum Analysis Creatinine” value was determined as 1.41 mg/dL, the “Serum Analysis IL-6” value turned out to be 174.42 pg/mL and the “Urine Analysis Glomerular Filtration Rate” value is 5.75 mL/min/kg. Further, the “% Decreased Creatinine” value was 6.30%, the “% Decreased in BUN” value is given as 9.42%, the “% Decreased in IL-6” value amounted to 3.45% and the “% Increased GFR” value is given as 4.55%.
